According to publication PMC5503199 (Molecular microbiology, 2009):
Values joined by “and” are separate entries in the source; they are usually repeats but may differ in a detail not shown here. Equal entries are not always repeated. Where two headings read alike, the source gives them in different places.

Legend:
[1] = target: T1, BetX with CbcWV (Pseudomonas aeruginosa, UniProt Q9HZ04); assay: Competitive uptake, MKH13 expressing cbcWV and betX; assay type: cell-based; settings: pNcbcWV, pT-PA3236, SBP BetX, [^14C]betaine 10 μM, competitor 1 mM
T1 sequence (Q9HZ04 26-285): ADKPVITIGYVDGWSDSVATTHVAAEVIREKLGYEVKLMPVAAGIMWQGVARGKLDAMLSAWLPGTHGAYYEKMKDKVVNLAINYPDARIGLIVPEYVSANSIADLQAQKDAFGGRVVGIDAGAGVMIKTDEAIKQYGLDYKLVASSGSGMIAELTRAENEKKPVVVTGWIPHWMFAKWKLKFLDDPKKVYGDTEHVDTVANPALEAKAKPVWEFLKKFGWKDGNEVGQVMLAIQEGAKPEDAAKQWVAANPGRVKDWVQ
T1 sequence (Q9HTI7 1-279 partner): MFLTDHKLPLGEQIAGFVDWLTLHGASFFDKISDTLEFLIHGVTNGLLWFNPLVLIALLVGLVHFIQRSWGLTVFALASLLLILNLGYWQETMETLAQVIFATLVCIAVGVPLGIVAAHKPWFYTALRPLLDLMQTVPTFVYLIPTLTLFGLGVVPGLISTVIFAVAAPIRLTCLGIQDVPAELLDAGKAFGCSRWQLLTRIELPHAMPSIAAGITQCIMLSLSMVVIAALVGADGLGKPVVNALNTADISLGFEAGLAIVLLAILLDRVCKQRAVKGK
T1 sequence (Q9HTI8 1-392 partner): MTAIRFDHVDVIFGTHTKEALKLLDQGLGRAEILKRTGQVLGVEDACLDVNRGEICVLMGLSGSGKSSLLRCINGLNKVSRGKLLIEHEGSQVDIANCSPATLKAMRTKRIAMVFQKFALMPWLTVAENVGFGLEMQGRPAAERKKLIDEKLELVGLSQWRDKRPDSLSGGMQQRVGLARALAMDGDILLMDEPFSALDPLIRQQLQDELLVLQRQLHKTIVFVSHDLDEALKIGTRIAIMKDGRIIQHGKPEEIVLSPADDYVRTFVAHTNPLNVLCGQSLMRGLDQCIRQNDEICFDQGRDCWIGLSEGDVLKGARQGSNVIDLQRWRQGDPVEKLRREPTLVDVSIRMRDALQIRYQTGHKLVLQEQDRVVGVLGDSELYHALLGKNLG

[2] = system: CbcX and CaiX with CbcWV; assay type: cell-based, Pseudomonas aeruginosa; settings: MKH13, pNcbcXWV, pT-PA5388, SBPs CbcX/CaiX, competitor 1 mM
[3] = system: P. syringae pv. tomato DC3000; assay type: cell-based, Pseudomonas syringae pv. tomato; settings: for uptake rate: DC3000 grown without choline and betaine as inducers, substrate 10 μM
[4] = system: cbcXWV from B728a in QAC transporter-deficient BT strain; assay type: cell-based, Pseudomonas syringae pv. syringae; settings: BT(pCbcB728a), unlabelled competitor 0.5 mM, 10 min
[5] = system: CbcWV with BetXB728a; assay type: cell-based, Pseudomonas syringae pv. syringae; settings: MKH13; pNcbcWV, pT-B3758; SBP BetXB728a; substrate 10 μM; single replication
[6] = target: CbcX with CbcWV (Pseudomonas aeruginosa, UniProt Q9HTI6)
[7] = system: S. meliloti Cho transporter ChoXWV; assay type: cell-based, Sinorhizobium meliloti; settings: MKH13; pNchoXWV, Plasmid 2 None; SBP ChoX; substrate 10 μM; single replication
[8] = system: complete Cbc transporter CbcXWV (PAO1); assay type: cell-based, Pseudomonas aeruginosa; settings: for Total uptake: pNcbcXWV; for choline uptake by CbcXWV: BT strain derivatives
[9] = target: T1, BetX with CbcWV; assay: Uptake kinetics, MKH13; settings: MKH13, pNcbcWV + pTPA3236, SBP BetX, mean (SE), n = 4
[10] = target: CbcWV-CaiX (Pseudomonas aeruginosa, UniProt Q9HTH6); assay: Uptake kinetics, PA5378::tn; settings: pNcbcWV, SBP CaiXPAO1, mean (SE), n = 4
[11] = target: T2, ChoXWV (Sinorhizobium meliloti, UniProt Q92N37); assay: Uptake kinetics, MKH13; settings: MKH13, pNchoXWV; SBP ChoX; mean (SE), n = 4
T2 sequence (Q92N37 28-318): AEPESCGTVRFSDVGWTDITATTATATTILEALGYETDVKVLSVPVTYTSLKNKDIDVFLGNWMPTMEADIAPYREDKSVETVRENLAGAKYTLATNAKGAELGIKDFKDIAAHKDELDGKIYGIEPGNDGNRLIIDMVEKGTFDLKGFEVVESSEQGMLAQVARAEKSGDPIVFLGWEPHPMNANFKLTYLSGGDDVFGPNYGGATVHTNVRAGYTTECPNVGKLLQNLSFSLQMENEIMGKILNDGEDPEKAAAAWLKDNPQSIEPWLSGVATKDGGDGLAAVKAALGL
T2 sequence (Q92N36 1-281 partner): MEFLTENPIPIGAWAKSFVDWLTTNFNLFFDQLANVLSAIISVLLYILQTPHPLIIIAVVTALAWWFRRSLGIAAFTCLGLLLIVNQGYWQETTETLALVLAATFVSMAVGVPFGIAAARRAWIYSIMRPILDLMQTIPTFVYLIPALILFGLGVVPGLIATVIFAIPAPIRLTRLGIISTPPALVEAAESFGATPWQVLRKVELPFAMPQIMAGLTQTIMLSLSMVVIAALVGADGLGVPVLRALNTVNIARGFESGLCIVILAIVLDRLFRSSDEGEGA
T2 sequence (Q92N35 1-349 partner): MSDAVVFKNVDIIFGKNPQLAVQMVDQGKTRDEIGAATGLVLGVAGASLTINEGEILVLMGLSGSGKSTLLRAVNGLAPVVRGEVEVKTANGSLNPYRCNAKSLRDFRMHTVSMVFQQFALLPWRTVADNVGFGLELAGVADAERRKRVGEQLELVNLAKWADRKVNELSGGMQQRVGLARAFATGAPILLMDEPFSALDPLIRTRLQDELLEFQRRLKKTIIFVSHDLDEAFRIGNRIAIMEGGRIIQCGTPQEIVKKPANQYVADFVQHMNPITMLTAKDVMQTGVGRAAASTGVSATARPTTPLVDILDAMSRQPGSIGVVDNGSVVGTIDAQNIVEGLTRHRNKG

[12] = host BT0028Ko, substrate 10 μM, mean (SE), n = 2
[13] = host BT2916Ko, substrate 10 μM, single replication
[14] = host BT3758Ko, substrate 10 μM, mean (SE), n = 3

| SMILES | % inhibition of uptake of substrate by unlabelled competitor [1] | % inhibition of uptake of substrate by unlabelled competitor ([2]; [^14C]betaine 10 μM) | % inhibition of uptake of substrate by unlabelled competitor ([2]; [^14C]choline 10 μM) | uptake rate [3] | % inhibition of uptake of [^14C]substrate ([4]; [^14C]betaine 5 μM) | % inhibition of uptake of [^14C]substrate ([4]; [^14C]carnitine 5 μM) | % inhibition of uptake of [^14C]substrate ([4]; [^14C]choline 5 μM) | Total uptake [5] | Total uptake [7] | Total uptake [8, 12] | Total uptake [8, 13] | Total uptake [8, 14] | also measured |
| --- | --- | --- | --- | --- | --- | --- | --- | --- | --- | --- | --- | --- | --- |
| C[N+](C)(C)CC(=O)O [Betaine, glycine betaine] | 94% | 88% | −1% | 0.6 nmol min^−1 (mg protein)^−1 | 93% | 83% | 19% | 11.9 nmol (mg protein)^−1 | 2.7 nmol (mg protein)^−1 | 16.1 (0.41) nmol (mg protein)^−1 | 16.0 nmol (mg protein)^−1 | 14.3 (0.24) nmol (mg protein)^−1 | increase of initial uptake rate after growth with inducer ([3]; DC3000 grown with 10 mM choline or betaine as inducers): three- to fourfold; fold lower affinity of CbcX for betaine than choline [6]: approximately 10 fold; maximal rate of uptake (Vmax) ([6]; MKH13, pNcbcXWV, SBP CbcX, mean (SE), n = 4): 11.6 (0.6) nmol min^−1 (mg protein)^−1; maximal rate of uptake (Vmax) ([6]; MKH13, pNcbcXWV, SBP CbcX, mean (SE), n = 4, listed as betaine): 11.6 nmol min^−1 (mg protein)^−1; maximal rate of uptake (Vmax) [9]: 4.8 (0.18) nmol min^−1 (mg protein)^−1; maximal rate of uptake (Vmax) ([9]; listed as betaine): 4.8 nmol min^−1 (mg protein)^−1 |
| C[N+](C)(C)C[C@H](O)CC(=O)[O-] [Carnitine, L-carnitine] | 3% | 10% | −2% |  | 5% | 93% | 5% | 0 nmol (mg protein)^−1 | 0 nmol (mg protein)^−1 | 7.0 (0.4) nmol (mg protein)^−1 | 0.5 nmol (mg protein)^−1 | 13.0 (0.3) nmol (mg protein)^−1 | maximal rate of uptake (Vmax) [10]: 3.8 (0.33) nmol min^−1 (mg protein)^−1 |
| C[N+](C)(C)CCO [Choline, choline] | −8% | 99% | 96% | 1.8 nmol min^−1 (mg protein)^−1 | 3% | 75% | 93% | 0 nmol (mg protein)^−1 | 4.7 nmol (mg protein)^−1 | 18.2 (0.36) nmol (mg protein)^−1 | 16.2 nmol (mg protein)^−1 | 16.4 (0.18) nmol (mg protein)^−1 | increase of initial uptake rate after growth with inducer [3]: three- to fourfold; maximal rate of uptake (Vmax) [11]: 1.2 (0.05) nmol min^−1 (mg protein)^−1; maximal rate of uptake (Vmax) [6]: 34.6 nmol min^−1 (mg protein)^−1 and 34.6 (2.2) nmol min^−1 (mg protein)^−1; choline uptake by CbcXWV ([8]; choline 10 μM (summary of Table 4)): 16 to 18 nmol (mg protein)^−1; choline uptake by CbcXWV ([8]; choline 1 mM (summary of Table 4)): 562–648 nmol (mg protein)^−1; share of choline uptake mediated by CbcX ([8]; at low (10 μM) and high (1 mM) [^14C]choline concentrations, BT derivatives): approximately 99%; Total uptake ([8]; host BT0028Ko, substrate 1 mM, mean (SE), n = 2): 562 (6.8) nmol (mg protein)^−1; Total uptake ([8]; host BT2916Ko, substrate 1 mM, single replication): 644 nmol (mg protein)^−1; Total uptake ([8]; host BT3758Ko, substrate 1 mM, mean (SE), n = 3): 648 (27.5) nmol (mg protein)^−1 |
